Experimental data: patent publication US8883964B2, “Compositions comprising modified collagen and uses therefor” (The Johns Hopkins University, priority 2004, dated 2014)

Columns and labels:
collagen fibers (type I) = target: T1, collagen fibers (type I) (Bos taurus, UniProt P02453+P02465); experiment: TEM analysis of the modified collagen fibers; design: species or system bovine; details: treatment at 30° C.
T1 construct: natural collagen (acid soluble, bovine type I); purchased Sigma
Description: Collagen fibers were prepared by dialysis of collagen in 0.01M acetic acid solution against dilute NaCl solution. Peptide 4 in potassium phosphate buffer (400 μl, 500 μM, pH 7.4) was added to the collagen fibers in the PBS buffer (1 ml, 1 mg/ml, pH 7.4). The mixture was incubated for 3 hours and excess peptide 4 was removed by repeated centrifugation. The collagen fibers were resuspended in deionized water and transferred to a TEM grid. Uranyl acetate was used to stain the collagen fiber. (FIG. 6)

[1] = target: T2, collagen films (type I, bovine) (Bos taurus, UniProt P02453+P02465); experiment: CMP-collagen film affinity study (fluorescence intensity of treated films); assay type: binding; details: for affinity toward collagen film (fluorescence intensity): solution pre-equilibrated at 25° C. or 80° C., both conditions, 3 h at room temperature
T2 construct: natural collagen (acid soluble, bovine type I); purchased Sigma
Description: The transition melting temperature of collagen film as determined by circular dichroism spectroscopy is shown at FIG. 4. To the collagen-coated cell culture wells (at room temperature) was added a solution of 2 which was pre-equilibrated at either 25° C. or 80° C. After three hours of incubation at room temperature, the collagen films were washed with buffer solution and observed by fluorescence microscope. As control samples, 5CF, fluorescein isothiocyanate-dextran (FITC-Dextran), and peptide 3 were used to treat collagen films under identical experimental conditions. […] Similar results were obtained when gelatin films were used as a substrate (FIG. 5A: Group c). In addition, the helical content of CMP treated collagen film was 3.5 times higher than that of the film treated with a blank solution (see support information).
In order to understand the effect of collagen film denaturation in the CMP binding process, a shorter CMP derivative was synthesized, peptide 4, with a melting temperature (25° C.) well below that of the collagen film. […] In addition, the modified collagen fiber retained its native banding texture when investigated by transmission electron microscopy (FIG. 6). Hotter solutions (60° C. and 80° C.) which denature the collagen film during the treatment produced collagen films with slightly higher CMP content (approximately 20% increase from that of the […] solution).
To each well of a 96-well culture plate was added 200 μl of saturated collagen (acid soluble, type I bovine) solution in 0.5 M acetic acid. The culture plate was air-dried to form transparent collagen films. The films were neutralized with 0.01 M potassium phosphate buffer (pH 7.4), and washed with distilled water. To the collagen-coated wells were added 40 μl of 0.01 M potassium phosphate solutions (pH 7.4) containing 50 μM of either CF (5-carboxyfluorescein), FITC-Dextran, and peptides 2, 3, or 4, which were pre-equilibrated at 25° C. or 80° C. After 3 hours of incubation at room temperature, the wells were washed with 0.01 M potassium phosphate buffer solution (pH 7.4) and observed by fluorescence microscope (Eclips ME 600, Nikon Corp). The total fluorescence intensity was acquired from the fluorescence micrographs using Meta Imaging Series V4.5, (Universal Imaging Corporation, Dowingtown Pa.). Average values of four independent experiments are reported.

[2] = Circular dichroism thermal melting (triple helix transition temperature); assay type: physicochemical; details: for Tm (transition temperature determined by circular dichroism spectroscopy): measured in 57.5 μM acetic acid solution
Description: Circular dichroism (CD) spectra were recorded on JASCO 710 spectrometer equipped with JASCO PTC-348 WI temperature controller and Hellma cell (400 μL, 0.1 mm pathlength). The thermal melting curves were obtained by measuring the molar ellipticity at 225 nm with 1° C./min heating rate. All samples (57 μM in 50 mM acetic acid) were stored at 4° C. for 24 hours before the CD measurement.
The thermal melting curves were obtained by measuring the ellipticity of peptide in deionized (DI) water (0.5˜2 mM) at 225 nm with 0.1° C./min heating rate. All samples were stored at 4° C. for 24 hours before the measurement. (FIG. 15)
Triple-helical conformation of the CMP was confirmed by circular dichroism (CD) spectroscopy. Peptide samples (250 or 500 μM) were prepared in distilled water and incubated at 4° C. overnight before the CD measurement. CD was recorded between 180 and 280 nm on a JASCO'710 CD spectrometer at various temperatures under a nitrogen flow. Each measurement had static equilibrium time of 30 minutes.

[3] = target: T3, Collagen (type I, bovine) film (Bos taurus, UniProt P02453+P02465); experiment: Helical content estimation of the modified collagen films by CD
T3 construct: natural collagen (acid soluble, bovine type I); purchased Sigma
Description: Collagen (type I, bovine) film was treated with either peptide 2 solution or blank buffer solution as described before. After 3 hr of incubation at room temperature, the wells were washed with 0.01 M potassium phosphate buffer solution (pH 7.4) and deionized water. All samples were dissolved in 50 mM acetic acid to a concentration of 1.80 μM or 3.60 μM and stored at 4° C. for 24 hours before the CD measurement. Average values of four independent experiments are reported (FIG. 4).

[4] = comparison value; cited from earlier work
[5] = tested on: breast epithelial cells (MCF-7); experiment: Cell adhesion study on treated collagen film, breast epithelial cells; assay type: cell-based, human; details: for invasion of treated films by fibroblasts or epithelial cells: summary statement
Description: (§1) The melting temperature of 5 was determined to be 29° C. which is 7° C. lower than the melting temperature of (ProHypGly)7 (SEQ ID NO: 40) (Table 1).^27 Here, the hydrophilic and bulky PEG group seems to destabilize the triple helix in water. A solution containing 5 at 45° C. was added to the collagen coated culture plate (prepared as above) and human fibroblasts or breast epithelial cells were seeded and incubated for three days at 37° C. […] In contrast, areas of collagen films treated with 5 are almost devoid of fibroblasts (FIG. 7B) and epithelial cells (FIG. 7C).
For applications where it is desirable to repel cell growth for prolonged periods (e.g., weeks or months), it is desirable to employ CMPs of increased length. In films that were treated with mPEG2000-Gly3-(Pro-Hyp-Gly)7 (SEQ ID NO: 6), cell growth extending into the treated area was observed after 3 days in culture (FIGS. 9A, 9B, and 9C). This might be due to the release of mPEG2000-Gly3-(Pro-Hyp-Gly)7 (SEQ ID NO: 6) from the PEG-CMP modified collagen film during incubation at 37° C.
(Pro-Hyp-Gly)8-Gly3-PEG5000-OH (SEQ ID NO: 26) with lengthened CMP and PEG, was designed to prolong the anti-adhesive property of pegylated CMP modified collagen to cells. Its melting temperature is 38° C. in PBS solution. A delay in invasive cell growth was observed on areas of the collagen film treated with (Pro-Hyp-Gly)8-Gly3-PEG5000-OH (SEQ ID NO: 26) (FIGS. 10A and FIG. 10B). […] It can also be seen from the images that cells outside the treated area grow vertically before invading the treated area.
(§2) To the collagen film (prepared as above) was added 10 μl of peptide 5 solution (2 mM in pH 7.4 potassium phosphate buffer). The film was allowed to dry and excess materials were removed by washing with potassium phosphate buffer (pH 7.4, 50 mM) and culture medium (DMEM or IMDM). Cells were added to the culture well and incubated at room temperature for 30 minutes. Human fibroblasts (CRL-1502) were seeded at 4.5×10^5 cell/ml cell density in DMEM and breast epithelial cells (MCF-7) at 5.6×10^5 cells/ml density in cell culture media (IMDM). The nonattached cells were removed by rinsing the well three times with growth medium and PBS buffer. The remaining cells were incubated at 37° C. (5% CO2) for three days. The growth medium was exchanged after 48 hours.

[6] = Circular dichroism thermal melting (triple helix transition temperature); assay type: physicochemical; details: in PBS solution
[7] = tested on: Human fibroblasts (CRL-1502); experiment: Cell adhesion study on treated collagen film, human fibroblasts; assay type: cell-based; details: three days at 37° C.
Description: as §1, §2

collagen film = target: T4, collagen film (Bos taurus, UniProt P02453+P02465); experiment: Release of fluorescence-labeled CMP derivatives from collagen films; details: 37° C., PBS solution pH 7.4
T4 construct: natural collagen (acid soluble, bovine type I); purchased Sigma
Source text: The release of fluorescence-labeled PEG-CMPs derivatives from collagen films is shown in (FIG. 11).

[8] = solution pre-equilibrated at 80° C.

T2 sequence (P02453 162-1217 limits assumed): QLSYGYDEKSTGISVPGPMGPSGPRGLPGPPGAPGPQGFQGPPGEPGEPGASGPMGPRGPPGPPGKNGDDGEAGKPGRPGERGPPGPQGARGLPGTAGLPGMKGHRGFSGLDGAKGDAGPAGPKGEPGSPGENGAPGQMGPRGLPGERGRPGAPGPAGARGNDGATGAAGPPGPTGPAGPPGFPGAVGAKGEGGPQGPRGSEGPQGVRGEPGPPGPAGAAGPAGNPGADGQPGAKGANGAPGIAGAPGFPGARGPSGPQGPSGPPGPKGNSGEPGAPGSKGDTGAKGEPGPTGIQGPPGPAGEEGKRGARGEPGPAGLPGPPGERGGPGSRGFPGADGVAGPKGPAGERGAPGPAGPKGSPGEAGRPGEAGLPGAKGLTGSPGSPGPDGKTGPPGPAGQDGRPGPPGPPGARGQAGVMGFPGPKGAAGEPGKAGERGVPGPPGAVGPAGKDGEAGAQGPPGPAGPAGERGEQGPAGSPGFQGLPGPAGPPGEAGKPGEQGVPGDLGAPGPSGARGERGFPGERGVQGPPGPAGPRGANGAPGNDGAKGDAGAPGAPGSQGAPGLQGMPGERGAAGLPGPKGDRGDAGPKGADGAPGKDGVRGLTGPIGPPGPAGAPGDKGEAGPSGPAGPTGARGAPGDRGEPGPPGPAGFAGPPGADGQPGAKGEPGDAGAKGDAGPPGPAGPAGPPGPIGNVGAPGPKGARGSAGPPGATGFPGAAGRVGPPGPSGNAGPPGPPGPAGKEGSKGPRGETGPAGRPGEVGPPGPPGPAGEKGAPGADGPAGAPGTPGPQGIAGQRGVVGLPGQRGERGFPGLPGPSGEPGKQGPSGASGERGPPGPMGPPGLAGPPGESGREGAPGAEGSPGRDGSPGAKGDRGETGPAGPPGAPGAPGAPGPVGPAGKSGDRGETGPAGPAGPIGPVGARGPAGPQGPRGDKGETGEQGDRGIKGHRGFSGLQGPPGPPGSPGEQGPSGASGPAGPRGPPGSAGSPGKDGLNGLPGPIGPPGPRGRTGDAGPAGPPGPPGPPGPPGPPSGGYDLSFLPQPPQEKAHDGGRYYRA
T2 sequence (P02465 80-1117 limits assumed): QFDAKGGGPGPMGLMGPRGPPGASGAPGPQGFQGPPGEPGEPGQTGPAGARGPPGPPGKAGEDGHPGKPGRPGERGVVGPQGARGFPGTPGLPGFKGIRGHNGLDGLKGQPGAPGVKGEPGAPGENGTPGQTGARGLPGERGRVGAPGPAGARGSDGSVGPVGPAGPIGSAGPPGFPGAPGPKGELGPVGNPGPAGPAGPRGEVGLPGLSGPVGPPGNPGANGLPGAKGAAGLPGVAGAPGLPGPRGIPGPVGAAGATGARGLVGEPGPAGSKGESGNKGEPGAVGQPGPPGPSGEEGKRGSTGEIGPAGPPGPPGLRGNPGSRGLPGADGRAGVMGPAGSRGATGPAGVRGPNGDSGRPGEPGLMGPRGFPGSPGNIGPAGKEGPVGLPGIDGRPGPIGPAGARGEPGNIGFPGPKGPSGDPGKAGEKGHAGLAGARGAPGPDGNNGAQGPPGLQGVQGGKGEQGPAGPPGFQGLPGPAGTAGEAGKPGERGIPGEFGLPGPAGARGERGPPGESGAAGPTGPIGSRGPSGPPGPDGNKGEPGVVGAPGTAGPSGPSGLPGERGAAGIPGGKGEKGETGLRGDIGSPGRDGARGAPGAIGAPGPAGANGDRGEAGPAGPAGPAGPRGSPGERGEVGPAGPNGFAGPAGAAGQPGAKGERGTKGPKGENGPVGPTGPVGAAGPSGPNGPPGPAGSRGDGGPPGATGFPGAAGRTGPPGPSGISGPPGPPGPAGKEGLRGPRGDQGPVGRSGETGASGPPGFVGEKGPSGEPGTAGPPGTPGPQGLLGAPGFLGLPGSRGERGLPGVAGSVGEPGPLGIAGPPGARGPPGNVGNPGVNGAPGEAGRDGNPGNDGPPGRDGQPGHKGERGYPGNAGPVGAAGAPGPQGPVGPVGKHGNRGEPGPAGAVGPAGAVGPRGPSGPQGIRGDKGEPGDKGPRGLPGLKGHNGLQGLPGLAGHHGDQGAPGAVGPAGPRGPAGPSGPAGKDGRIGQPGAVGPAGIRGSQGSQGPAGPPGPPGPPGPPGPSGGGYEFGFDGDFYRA
T3 sequence (P02453 162-1217 limits assumed): as the sequence (P02453 162-1217 limits assumed) above
T3 sequence (P02465 80-1117 limits assumed): as the sequence (P02465 80-1117 limits assumed) above
T1 sequence (P02453 162-1217 limits assumed): as the sequence (P02453 162-1217 limits assumed) above
T1 sequence (P02465 80-1117 limits assumed): as the sequence (P02465 80-1117 limits assumed) above
T4 sequence (P02453 162-1217 limits assumed): as the sequence (P02453 162-1217 limits assumed) above
T4 sequence (P02465 80-1117 limits assumed): as the sequence (P02465 80-1117 limits assumed) above

For 5CF-Gly3-(ProHypGly)6- [Compound 4], the “banding pattern of collagen fibers after treatment” value (collagen fibers (type I)) was “native banding pattern”, the “increase in CMP content of collagen film from that of the 30° C. solution” value ([1]; hotter solutions (60° C. and 80° C.)) was “approximately 20%” and the “binding to collagen film” value ([1]; solution at 10° C.) was “Little binding”. For the same compound, the “increase in CMP attachment compared to the 10° C. solution” value ([1]; solution pre-equilibrated at 30° C.) was “more than three-fold increase”, the “Tm (transition temperature determined by circular dichroism spectroscopy)” value [2] was 25 °C and the “Tm (transition temperature determined by circular dichroism spectroscopy)” value ([2]; listed as peptide 4) was 25 °C.
With 5CF-Gly3-(ProHypGly)10- [Compound 2] the “helical content of treated collagen film relative to film treated with blank solution” value [3] was 3.5 times, the “original helical content of collagen film retained after treatment” value [3, 8] was 80% and the “fluorescence of treated collagen film” value ([1]; solution pre-equilibrated at 25° C.) was “negligible fluorescence”. For the same compound, the “fluorescence of treated collagen film” value [1, 8] was “strong fluorescence”, the “Tm (CD melting transition temperature)” value ([2]; Cys-CMP derivatives, deionized water, ellipticity at 225 nm) was 21 °C and the “Tm (transition temperature determined by circular dichroism spectroscopy)” value [2] was 75 °C. For the same compound, the “Tm (transition temperature determined by circular dichroism spectroscopy)” value ([2]; listed as peptide 2) was 75 °C.
With O=C(O)c1ccc2c(c1)C(=O)OC21c2ccc(O)cc2Oc2cc(O)ccc21 [Compound 5CF, 5-carboxyfluorescein, reference compound] the “affinity toward collagen film (fluorescence intensity)” value [1] was “negligible affinity”.
In the case of (Pro-Hyp-Gly)7, the “melting temperature of unmodified (Pro-Hyp-Gly)7 CMP” value [4] is listed as 37 °C.
In the case of (Pro-Hyp-Gly)8-Gly3-PEG5000-OH, the “time for which the treated gel repelled extensive cell growth” value [5] is reported as “close to eleven days”, the “cell invasion into treated areas of the collagen film” value (“cell invasion into treated areas” for short) ([5]; after eleven days in culture) is reported as “Extensive invasion” and the “cell invasion into treated areas” value ([5]; after five days in culture) is reported as “little invasion”. The “cell invasion into treated areas” value ([5]; after nine days in culture) was “moderate invasion”, the “invasion of treated films by fibroblasts or epithelial cells” value [5] was “dramatically reduced invasion” and the melting temperature [6] was 38 °C.
With (ProHypGly)7-Tyr the “CD melting temperature (midpoint of CD melting curve)” value ([2]; peptide in distilled water) was 38.5 °C.
For -(ProHypGly)10- [Compound 1], the “Tm (transition temperature determined by circular dichroism spectroscopy)” value [2] was 69 °C.
In the case of “CH3O—(CH2—CH2—O)n—OH [mPEG2000, reference compound]”, the “fibroblasts on treated area of collagen film” value [7] is reported as “Homogenous distribution of fibroblasts”.
With FL-PEG2000-Gly3-(Pro-Hyp-Gly)7 the “release from collagen film relative to 5CF-Gly3-(Pro-Hyp-Gly)8-Gly3-PEG5000-OH” value (collagen film) was “faster”.
For “fluorescein isothiocyanate-dextran [FITC-Dextran, reference compound]”, the “affinity toward collagen film (fluorescence intensity)” value [1] was “negligible affinity”.
In the case of “mPEG2000-Gly3-(ProHypGly)7- [Compound 5]”, the “fibroblasts on treated area of collagen film” value [7] is reported as “almost devoid”, the “cell growth extending into the treated area observed after” value ([5]; in culture at 37° C.) is reported as 3 days and the “invasion of treated films by fibroblasts or epithelial cells” value [5] is reported as “dramatically reduced invasion”. The “epithelial cells on treated area of collagen film” value ([5]; three days at 37° C.) was “almost devoid”, the “melting temperature lower than that of (ProHypGly)7” value ([2]; difference) was 7 °C and the “Tm (transition temperature determined by circular dichroism spectroscopy)” value [2] was 29 °C.
